Experimental data taken from US6572839B2, “Sensitizer for tumor treatment” (Hitachi, Ltd., priority 2000, dated 2003).
Read-outs that look alike come from different tables or passages of the source.

Assays:
[1] = tested on: murine experimental tumor Colone 26; experiment: Evaluation of the accumulation of RB—COOH—Cn in tumor tissues (fluorescence intensity ratio); assay type: in vivo; conditions: tumor bearing CDF1 mice, intravenous, 10 mg/kg, until 120 minutes after administration, FIG. 3
Method: (§1) Tumor bearing mice were intravenously administered with RB or RB—Cn and, after the lapse of a predetermined period, tumor tissues were excised. The fluorescence spectrum of the agent extracted from the tumor tissues was measured and the concentration of the agent was estimated from the fluorescence intensity to thereby evaluate the accumulability in tumor tissues. Mice subjected to the test were 5-week male CDF1 mice one to two weeks after subcutaneous implantation of small pieces (e.g. 1 mm^3 pieces) of the murine experimental tumor Colone 26. The dose of the agent was 10 mg/kg and methanol or chloroform was used for the extraction.
Tumor bearing mice were intravenously administered with RB or RB—COOH—Cn and, after the lapse of a predetermined period, tumor tissues were excised. The fluorescence intensity of the tumor tissues was measured and the accumulability in tumor tissues was evaluated based on the ratio of that intensity and the fluorescence intensity of an internal standard (fluorescence intensity ratio). The mice used in the test and the dose of the agent were the same as in Test Example 3. As an example of the results, the relation between the time from agent administration to mice to tumor tissue excision and the fluorescence intensity ratio is shown in FIG. 3 for each of RB and RB—COOH—Cn species containing 2, 3, 7 or 15 carbon atoms in the alkyl group (RB—COOH—C2, RB—COOH—C3, RB—COOH—C7 and RB—COOH—C15).

[2] = Evaluation of the acoustic cavitation promoting effect (subharmonic signal upon ultrasound irradiation); conditions: 0.5 MHz and 1 MHz; for subharmonic generation: 0.1 mmol/L in PBS (pH 7.4), acoustic intensity 5 W/cm^2, 1 minute
Method: A 0.1 mmol/L solution of RB—Cn in PBS (pH 7.4, containing 1% DMF) was sealed in a polyethylene bag (30×25 mm, 0.03 mm thick) and irradiated with ultrasonic waves of 0.5 MHz and 1 MHZ simultaneously under conditions of an acoustic intensity of 5 or 10 W/cm^2 and an exposure time of 1 minute, using an experimental apparatus having the constitution shown in FIG. 4.
In FIG. 4, 10 indicates degassed water, 11—a water tank, 12—a polyethylene bag, 13—a sample solution, 14-1 and 14-2 each—a holdfast, 15—a hanger, 16—a hydrophone, 17—a supporter, 18—an ultrasound transducer, 19—a supporter, 20—a signal processor, 21—an amplifier, 22—a spectrum analyzer, 23—an amplifier, and 24—a wave generator.
The acoustic signals at the subharmonic (250 kHz) characteristic to acoustic cavitation were measured at one-second intervals using a focusing type hydrophone, the root mean square of the signal amplitudes during the irradiation period was calculated and this was used as an indication of acoustic cavitation.
For comparison, a 0.1 mmol/L solution of RB in PBS (pH 7.4) was also measured for subharmonic signals. […] For each of RB and the RB—Cn species containing 3, 6 or 18 carbon atoms in the alkyl group (RB—C3, RB—C6 and RB—C18), the relation between acoustic intensity and subharmonic intensity is shown in FIG. 6.
Using a 0.1 mmol/L solution of RB—COOH—Cn in PBS (pH 7.4), the acoustic cavitation promoting effect was evaluated in the same manner as in Test Example 5.
Using a 0.1 mmol/L solution of xanthene dye sensitizer—COOH—Cn in PBS (pH 7.4), the acoustic cavitation promoting effect was evaluated in the same manner as in Test Example 5.

[3] = Evaluation of the photosensitivity (photo-oxidation reaction of iodide); conditions: light of 365 nm, DMF solution, FIG. 9 / FIG. 10
Method: The photo-oxidation reaction of iodide as represented by Equation 4 was carried out in the presence of RB—Cn and the photosensitivity of the compound was evaluated.
A mixed solution composed of 2 mL of a 0.1 mol/L solution of potassium iodide in DMF and 1 mL of a 1 mmol/L solution of RB—Cn in DMF was placed in a glass dish (48 mm in diameter) and irradiated with light of 365 nm for a predetermined period. The absorbance, at 350 nm, of the sample was measured before and after exposure. 350 nm is the absorption maximum wavelength of I3^—. Based on the absorbance (A), the concentration of I3^— was calculated using Equation 5.
The procedure of Test Example 8 was followed in the presence of RB—COOH—Cn.

[4] = tested on: murine experimental tumor Colone 26; experiment: Evaluation of the accumulation of RB—Cn in tumor tissues (agent extracted, fluorescence); assay type: in vivo; conditions: tumor bearing CDF1 mice, intravenous, 10 mg/kg, until 120 minutes after administration, FIG. 2
Method: as §1

[5] = Solubility measurement of RB and lipophilic derivatives of RB in PBS and 1-octanol; assay type: physicochemical; conditions: saturated solution at 25° C.; for solubility: thermodynamic from solid
Method: The sonochemical sensitizers of the invention, namely RB—COOH—Cn species (n being the number of carbon atoms in the straight alkyl group) were examined for their solubility in an aqueous solution and in an organic solvent. The aqueous solution used was a phosphate buffer solution (hereinafter, PBS) with a pH of 7.4 and the organic solvent used was 1-octanol.
First, saturated solutions of each RB—COOH—Cn in PBS and in 1-octanol were prepared at 25° C. and each solution was measured for its ultraviolet-visible absorption spectrum. Based on the molar absorptivity determined beforehand by measuring the ultraviolet-visible absorption spectrum of a solution having a known concentration, the agent concentration in the saturated solution was estimated.
For comparison, the starting material RB and two kinds of RB derivative, for which an attempt was made to increase the lipophilicity by a method other than that of the invention, namely rose bengal alkyl esters (hereinafter, RB—Cn, n being the number of carbon atoms in the alkyl group) and rose bengal fatty acid esters (hereinafter, RB—Cn—COOH, n being the number of carbon atoms in the methylene chain), were also subjected to solubility measurement.
In the solubility measurement, the respective derivatives having an equal number of carbon atoms in the alkyl group (n=7) were used.

[6] = Preparation of RB solution and RB lipophilic derivative solutions for administration in vivo; assay type: physicochemical; conditions: target 10 mg/mL (RB—Cn 1 mg/mL), final pH about 7.4
Method: A solution each of RB (Formula 9), RB—Cn—COOH (Formula 11) and RB—COOH—Cn (Formula 12) with a concentration of 10 mg/mL and a solution of RB—Cn (Formula 10) with a concentration of 1 mg/mL were prepared.
RB: 50 mg of RB was dissolved in PBS (pH 7.4) and the whole volume was made 5 mL.
RB—Cn: 4 mg of RB—Cn was dissolved in 0.4 mL of DMSO. Then, 0.4 mL of ethanol, 0.3 mL of 0.1 N NaOH aqueous solution and 1.0 mL of PBS (pH 7.4) were added and, further, 0.1 N hydrochloric acid was added to adjust the pH to about 7.4 and the whole volume was made 4 mL by further adding PBS (pH 7.4). The DMSO accounted for 10% of the whole solution.
RB—C7—COOH: 30 mg of RB—C7—COOH was dissolved in 1.2 mL of 0.1 N NaOH aqueous solution, 0.1 N hydrochloric acid was added to adjust the pH to about 7.4 and the whole volume was made 3 mL by further adding PBS (pH 7.4).
RB—COOH—Cn: n=2 to 10:30 mg of each RB—COOH—Cn was dissolved in 1.2 mL of 0.1 N NaOH aqueous solution, 0.1 N hydrochloric acid was added to adjust the pH to about 7.4 and the whole volume was made 3 mL by further adding PBS (pH 7.4). […].
n=11 to 20:30 mg of each RB—COOH—Cn was dissolved in 0.6 mL of DMF. Then, 1.2 mL of 0.1 N NaOH aqueous solution was added, 0.1 N hydrochloric acid was added to adjust the pH to about 7.4 and the whole volume was made 3 mL by further adding PBS (pH 7.4).

Compound	subharmonic generation [2]	relation between light exposure time and yield in photo-oxidation of iodide [3]	also measured
Rose bengal-α-carboxypentadecyl ester [RB—COOH—C15]	observed	almost proportional to the exposure time	occurrence/concentration in tumor tissues (fluorescence intensity ratio to internal standard) [1]: higher than that of RB
CCCCCCOC(=O)c1c(Cl)c(Cl)c(Cl)c(Cl)c1-c1c2cc(I)c(=O)c(I)c-2oc2c(I)c(O)c(I)cc12 [RB—C6]	observed	almost proportional to the exposure time	agent concentration in tumor tissues [4]: higher as compared with RB
O=C([O-])c1c(Cl)c(Cl)c(Cl)c(Cl)c1-c1c2cc(Br)c(=O)c(Br)c-2oc2c(Br)c([O-])c(Br)cc12.[Na+].[Na+] [PB, phloxine B sodium salt]	observed		
erythrosine B sodium salt [EB]	observed		
O=C(O)CCCCCCCOC(=O)c1c(Cl)c(Cl)c(Cl)c(Cl)c1-c1c2cc(Br)c(=O)c(Br)c-2oc2c(Br)c(O)c(Br)cc12 [PB—COOH—C7, Phloxine B-α-carboxyheptyl ester]	observed		
CCCCCCC(OC(=O)c1ccccc1-c1c2cc(I)c(=O)c(I)c-2oc2c(I)c(O)c(I)cc12)C(=O)O (stereo not drawn) [EB—COOH—C7, Erythrosine B-α-carboxyheptyl ester]	observed		
CCCCCCCCCCCCCCCCCCOC(=O)c1c(Cl)c(Cl)c(Cl)c(Cl)c1-c1c2cc(I)c(=O)c(I)c-2oc2c(I)c(O)c(I)cc12 [RB—C18]		almost proportional to the exposure time	agent concentration in tumor tissues [4]: higher as compared with RB; subharmonic formation ([2]; 0.1 mmol/L in PBS (pH 7.4, 1% DMF), ultrasound intensity 10 W/cm^2, 1 minute): no subharmonic formation was observed
CCCCCCCCCCCCCCOC(=O)c1c(Cl)c(Cl)c(Cl)c(Cl)c1-c1c2cc(I)c(=O)c(I)c-2oc2c(I)c(O)c(I)cc12 [RB—Cl4]		almost proportional to the exposure time	
CCCCCCCCCCOC(=O)c1c(Cl)c(Cl)c(Cl)c(Cl)c1-c1c2cc(I)c(=O)c(I)c-2oc2c(I)c(O)c(I)cc12 [RB—CLO]		almost proportional to the exposure time	
Rose bengal-α-carboxyethyl ester [RB—COOH—C2]		almost proportional to the exposure time	occurrence/concentration in tumor tissues (fluorescence intensity ratio to internal standard) [1]: hardly observed
O=C([O-])c1c(Cl)c(Cl)c(Cl)c(Cl)c1-c1c2cc(I)c(=O)c(I)c-2oc2c(I)c([O-])c(I)cc12.[Na+].[Na+] [RB, rose bengal sodium salt]	observed	almost proportional to the exposure time	solubility ([5]; 1-octanol, organic solvent or mixture, organic solvent, read-out: solubility in 1-octanol): < 0.1 mM; solubility ([5]; phosphate buffer solution (PBS), pH 7.4, aqueous buffer, aqueous solution, read-out: solubility in PBS (pH 7.4)): 220 mM; solubility in 1-octanol ([5]; organic solvent, sodium salt): <0.1 mmol/L; dissolution behaviour when preparing solution for administration in vivo [6]: soluble as it was in PBS (pH 7.4); agent concentration in tumor tissues [4]: hardly observed; occurrence/concentration in tumor tissues (fluorescence intensity ratio to internal standard) [1]: hardly observed
